Laboratory results published in paper PMC6385813, “Macrocyclisation of small peptides enabled by oxetane incorporation” (Chemical Science, 2019).

Assay: head-to-tail lactamisation of free linear peptides (H-/-OH), DEPBT (2 equiv), iPr2EtN (2 equiv)
Conditions: DMF, 1.0 mM, 25.0 °C

CC(C)C[C@@H]1NC(=O)[C@H](Cc2c[nH]c3ccccc23)NC(=O)CNC(=O)CNC1=O [H-Trp-Leu-Gly-Gly-OH]
ring closure, isolated yield (from CC(C)C[C@H](NC(=O)[C@@H](N)Cc1c[nH]c2ccccc12)C(=O)NCC(=O)NCC(=O)O, 12-membered ring, 48.0 h): 15%

CC(C)C[C@@H]1NC(=O)[C@H](Cc2c[nH]c3ccccc23)NC(=O)CNC2(CNC1=O)COC2 [H-Trp-Leu-GOx-Gly-OH]
ring closure, isolated yield (from CC(C)C[C@H](NC(=O)[C@@H](N)Cc1c[nH]c2ccccc12)C(=O)NCC1(NCC(=O)O)COC1, 12-membered ring, 48.0 h): 65%

CC(C)C[C@@H]1NC(=O)[C@H](Cc2ccc(O)cc2)NC(=O)[C@H](C)NC(C)(C)CNC(=O)[C@H](C)NC1=O [H-Leu-Ala-NHCH2C(Me)2-Ala-Tyr-OH]
ring closure, isolated yield (from CC(C)C[C@H](N)C(=O)N[C@@H](C)C(=O)NCC(C)(C)N[C@@H](C)C(=O)N[C@@H](Cc1ccc(O)cc1)C(=O)O, 15-membered ring, 24.0 h): 32%

CC(C)C[C@@H]1NC(=O)[C@H]2CCCN2C(=O)CNC(=O)CNC1=O [H-D-Pro-Leu-Gly-Gly-OH]
ring closure, isolated yield (from CC(C)C[C@H](NC(=O)[C@H]1CCCN1)C(=O)NCC(=O)NCC(=O)O, 12-membered ring, 48.0 h): 0%

CC(C)C[C@@H]1NC(=O)[C@H](Cc2ccc(O)cc2)NC(=O)[C@H](C)NC2(CNC(=O)[C@H](C)NC1=O)COC2 [H-Ala-GOx-Ala-Tyr-Leu-OH]
ring closure, isolated yield (from CC(C)C[C@H](NC(=O)[C@H](Cc1ccc(O)cc1)NC(=O)[C@H](C)NC1(CNC(=O)[C@H](C)N)COC1)C(=O)O, 15-membered ring, 24.0 h): 57%

CC(C)C[C@@H]1NC(=O)[C@H](Cc2ccc(O)cc2)NC(=O)[C@H](C)NC2(CNC(=O)[C@H](C)NC1=O)COC2 [H-Tyr-Leu-Ala-GOx-Ala-OH]
ring closure, isolated yield (from CC(C)C[C@H](NC(=O)[C@@H](N)Cc1ccc(O)cc1)C(=O)N[C@@H](C)C(=O)NCC1(N[C@@H](C)C(=O)O)COC1, 15-membered ring, 24.0 h): 31%

CC(C)C[C@@H]1NC(=O)[C@H](Cc2ccc(O)cc2)NC(=O)[C@H](C)NC(=O)CN(C)C(=O)[C@H](C)NC1=O [H-Leu-Ala-Sar-Ala-Tyr-OH]
ring closure, isolated yield (from CC(C)C[C@H](N)C(=O)N[C@@H](C)C(=O)N(C)CC(=O)N[C@@H](C)C(=O)N[C@@H](Cc1ccc(O)cc1)C(=O)O, 15-membered ring, 24.0 h): 36%

CC(C)C[C@@H]1NC(=O)[C@H](Cc2ccc(O)cc2)NC(=O)[C@H](C)NC(=O)CNC(=O)[C@H](C)NC1=O [H-Tyr-Leu-Ala-Gly-Ala-OH]
ring closure, isolated yield (from CC(C)C[C@H](NC(=O)[C@@H](N)Cc1ccc(O)cc1)C(=O)N[C@@H](C)C(=O)NCC(=O)N[C@@H](C)C(=O)O, 15-membered ring): 24%

CC(C)C[C@@H]1NC(=O)[C@H](CC(=O)OC(C)(C)C)NC(=O)CNC2(CNC1=O)COC2 [H-Asp(tBu)-Leu-GOx-Gly-OH]
ring closure, isolated yield (from CC(C)C[C@H](NC(=O)[C@@H](N)CC(=O)OC(C)(C)C)C(=O)NCC1(NCC(=O)O)COC1, 12-membered ring, 48.0 h): 49%

CC(C)C[C@@H]1NC(=O)[C@H](Cc2ccc(O)cc2)NC(=O)[C@H](C)NC(=O)CNC(=O)[C@H](C)NC1=O [H-Gly-Ala-Tyr-Leu-Ala-OH]
ring closure, isolated yield (from CC(C)C[C@H](NC(=O)[C@H](Cc1ccc(O)cc1)NC(=O)[C@H](C)NC(=O)CN)C(=O)N[C@@H](C)C(=O)O, 15-membered ring): 30%

CC(C)C[C@@H]1NC(=O)[C@H](Cc2c[nH]c3ccccc23)NC(=O)CNC2(COC2)[C@H](C)NC1=O [H-Trp-Leu-AOx-Gly-OH]
ring closure, isolated yield (from CC(C)C[C@H](NC(=O)[C@@H](N)Cc1c[nH]c2ccccc12)C(=O)N[C@@H](C)C1(NCC(=O)O)COC1, 12-membered ring, 48.0 h): 50%

CC(C)C[C@@H]1NC(=O)[C@H](Cc2c[nH]c3ccccc23)NC(=O)CNC(=O)[C@H](C)NC1=O [H-Trp-Leu-Ala-Gly-OH]
ring closure, isolated yield (from CC(C)C[C@H](NC(=O)[C@@H](N)Cc1c[nH]c2ccccc12)C(=O)N[C@@H](C)C(=O)NCC(=O)O, 12-membered ring, 48.0 h): 21%

CC(C)C[C@@H]1NC(=O)[C@H](Cc2ccc(O)cc2)NC(=O)[C@@H]2CCCN2C2(CNC(=O)[C@H](C)NC1=O)COC2 [H-Leu-Ala-GOx-Pro-Tyr-OH]
ring closure, isolated yield (from CC(C)C[C@H](N)C(=O)N[C@@H](C)C(=O)NCC1(N2CCC[C@H]2C(=O)N[C@@H](Cc2ccc(O)cc2)C(=O)O)COC1, 15-membered ring, 48.0 h): 48%

CC(C)C[C@@H]1NC(=O)[C@H](Cc2ccc(O)cc2)NC(=O)[C@H](C)NC(=O)CNC(=O)[C@H](C)NC1=O [H-Leu-Ala-Gly-Ala-Tyr-OH]
ring closure, isolated yield (from CC(C)C[C@H](N)C(=O)N[C@@H](C)C(=O)NCC(=O)N[C@@H](C)C(=O)N[C@@H](Cc1ccc(O)cc1)C(=O)O, 15-membered ring, 24.0 h): 31%

CC(C)C[C@@H]1NC(=O)[C@H](Cc2ccc(O)cc2)NC(=O)[C@H](C)NC2(CNC(=O)[C@H](C)NC1=O)COC2 [H-Leu-Ala-GOx-Ala-Tyr-OH]
ring closure, isolated yield (from CC(C)C[C@H](N)C(=O)N[C@@H](C)C(=O)NCC1(N[C@@H](C)C(=O)N[C@@H](Cc2ccc(O)cc2)C(=O)O)COC1, 15-membered ring, 24.0 h): 51%

CC(C)C[C@@H]1NC(=O)[C@H](Cc2ccc(O)cc2)NC(=O)[C@H](C)NCCNC(=O)[C@H](C)NC1=O [H-Leu-Ala-NHCH2CH2-Ala-Tyr-OH]
ring closure, isolated yield (from CC(C)C[C@H](N)C(=O)N[C@@H](C)C(=O)NCCN[C@@H](C)C(=O)N[C@@H](Cc1ccc(O)cc1)C(=O)O, 15-membered ring, 24.0 h): 28%

CC(C)C[C@@H]1NC(=O)[C@H](Cc2ccc(O)cc2)NC(=O)[C@H](C)NC(=O)C(C)(C)NC(=O)[C@H](C)NC1=O [H-Leu-Ala-Aib-Ala-Tyr-OH]
ring closure, isolated yield (from CC(C)C[C@H](N)C(=O)N[C@@H](C)C(=O)NC(C)(C)C(=O)N[C@@H](C)C(=O)N[C@@H](Cc1ccc(O)cc1)C(=O)O, 15-membered ring, 24.0 h): 29%

CC(C)C[C@@H]1NC(=O)[C@H](Cc2ccc(O)cc2)NC(=O)[C@H](C)NC(=O)CNC(=O)[C@H](C)NC1=O [H-Ala-Gly-Ala-Tyr-Leu-OH]
ring closure, isolated yield (from CC(C)C[C@H](NC(=O)[C@H](Cc1ccc(O)cc1)NC(=O)[C@H](C)NC(=O)CNC(=O)[C@H](C)N)C(=O)O, 15-membered ring, 24.0 h): 40%

CC(C)C[C@@H]1NC(=O)[C@H](Cc2ccc(O)cc2)NC(=O)[C@H](C)NC2(CNC(=O)[C@H](C)NC1=O)COC2 [H-GOx-Ala-Tyr-Leu-Ala-OH]
ring closure, isolated yield (from CC(C)C[C@H](NC(=O)[C@H](Cc1ccc(O)cc1)NC(=O)[C@H](C)NC1(CN)COC1)C(=O)N[C@@H](C)C(=O)O, 15-membered ring, 24.0 h): 43%

CC(C)C[C@@H]1NC(=O)[C@H](Cc2ccc(O)cc2)NC(=O)[C@H](C)NC(=O)CCNC(=O)[C@H](C)NC1=O [H-Leu-Ala-βAla-Ala-Tyr-OH]
ring closure, isolated yield (from CC(C)C[C@H](N)C(=O)N[C@@H](C)C(=O)NCCC(=O)N[C@@H](C)C(=O)N[C@@H](Cc1ccc(O)cc1)C(=O)O, 16-membered ring, 24.0 h): 39%

CC(C)C[C@@H]1NC(=O)[C@H](CC(=O)OC(C)(C)C)NC(=O)CNC(=O)CNC1=O [H-Asp(tBu)-Leu-Gly-Gly-OH]
ring closure, isolated yield (from CC(C)C[C@H](NC(=O)[C@@H](N)CC(=O)OC(C)(C)C)C(=O)NCC(=O)NCC(=O)O, 12-membered ring, 48.0 h): 14%

CC(C)C[C@@H]1NC(=O)[C@H]2CCCN2C(=O)CNC2(CNC1=O)COC2 [H-D-Pro-Leu-GOx-Gly-OH]
ring closure, isolated yield (from CC(C)C[C@H](NC(=O)[C@H]1CCCN1)C(=O)NCC1(NCC(=O)O)COC1, 12-membered ring, 48.0 h): 54%

CC(C)C[C@@H]1NC(=O)[C@H](Cc2ccccc2)NC(=O)[C@H]([C@@H](C)OC(C)(C)C)NC2(CNC(=O)[C@H](C(C)C)NC(=O)[C@H](Cc3ccc(OC(C)(C)C)cc3)NC1=O)COC2 [H-Leu-Tyr(tBu)-Val-GOx-Thr(tBu)-Phe-OH]
ring closure, isolated yield (from CC(C)C[C@H](N)C(=O)N[C@@H](Cc1ccc(OC(C)(C)C)cc1)C(=O)N[C@H](C(=O)NCC1(N[C@H](C(=O)N[C@@H](Cc2ccccc2)C(=O)O)[C@@H](C)OC(C)(C)C)COC1)C(C)C, 18-membered ring, 48.0 h): 58%

CC(C)C[C@@H]1NC(=O)[C@H](Cc2ccc(O)cc2)NC(=O)[C@@H]2CCCN2C(=O)CNC(=O)[C@H](C)NC1=O [H-Leu-Ala-Gly-Pro-Tyr-OH]
ring closure, isolated yield (from CC(C)C[C@H](N)C(=O)N[C@@H](C)C(=O)NCC(=O)N1CCC[C@H]1C(=O)N[C@@H](Cc1ccc(O)cc1)C(=O)O, 15-membered ring): 13%
